Values joined by “and” are separate entries in the source; they are usually repeats but may differ in a detail not shown here. Equal values may be shown once.
Experiments:
[1] = test system: AT3 mammary tumors; assay: Tumor-infiltrating lymphocytes in AT3 tumors, Compound 182 with α-PD-1; assay type: in vivo, mouse; set-up: CD4 EM / CD8 EM / IFNg+ TNF+ / GRZMB / MDSCs / NK cells / Tregs: unit not given here
Method: (§1) In addition, mice received four intraperitoneal injections of α-PD-1 (200 μg in 200 μl D-PBS; clone RMP1-14), or rat IgG2a isotype control (100 μg in 200 μl D-PBS, Bio X Cell) twice per week.
Tumor-bearing mice were sacrificed and tumors were excised and digested at 37 °C for 30 min using a cocktail of 1 mg/ml collagenase type IV (Worthington Biochemicals) and 0.02 mg/ml DNase I (Sigma-Aldrich) in DMEM supplemented with 2% (v/v) FBS. Cells were passed through a 70 μm cell strainer (BD Biosciences) twice and processed for flow cytometry. For assessing T cell activation, cells were surface stained with fluorophore-conjugated antibodies to CD62L, CD44, PD-1, and TIM-3. For the assessment of NK cells, B cells, myeloid-derived suppressor cells (MDSCs), dendritic cells (DCs), and tumor-associated macrophages, cells were surface stained with fluorophore-conjugated antibodies to NK1.1, TCRβ, CD19, CD11b, CD11c, F4/80, Ly6C and Ly6G. For the detection of intracellular cytokines TNF and IFNγ, T cells were stimulated with PMA (20 ng/ml; Sigma-Aldrich) and ionomycin (1 μg/ml; Sigma-Aldrich) in the presence of GolgiPlug™ and GolgiStop™ (BD Biosciences) for 4 h at 37 °C in complete T cell medium. For the intracellular detection of granzyme B, cells were processed untreated without the addition of BD GolgiPlug™ and BD GolgiStop™.

[2] = test system: AT3 mammary tumors; assay: AT3 tumor growth, Compound 182 with α-PD-1 checkpoint blockade; assay type: in vivo, mouse
Method: Male or female mice were injected subcutaneously with 5 × 10^5 MC38 tumor cells resuspended in 100 μl D-PBS into the flank. Alternatively, female mice were injected orthotopically with 5 × 10^5 AT3 or AT3-OVA or PTPN2-deleted AT3 or AT3-OVA tumor cells resuspended in 20 μl D-PBS into the fourth mammary fat pad. Tumor sizes were measured in two dimensions (mm^2) using electronic callipers two to three times per week as soon as tumors were palpable (20–25 mm^2).
as §1

[3] = Serum cytokines (BD Cytokine Bead Array) in AT3-OVA tumor-bearing mice; assay type: in vivo, mouse
Method: Single-cell suspensions from spleens and lymph nodes were obtained as described previously. For the detection of intracellular cytokines and granzyme B, T cells were fixed and permeabilized with the BD Cytofix/Cytoperm kit according to the manufacturer’s instructions. Briefly, T cells were first surface stained with fluorophore-conjugated antibodies and then fixed followed by permeabilization on ice for 20 min. Fixed and permeabilized cells were stained for IFN-γ, TNF, and granzyme B for 45 min at room temperature. For the detection of intracellular FoxP3 the Foxp3/Transcription Factor Staining Buffer Set (eBioscience) was used according to the manufacturer’s instructions. Briefly, cells were fixed and permeabilized for 1 h on ice followed by intracellular staining at room temperature for 45 min. For the detection of serum cytokines, the BD CBA Mouse Inflammation Kit™ was used according to the manufacturers’ instructions.

[4] = test system: p-STAT-1 and CD3 in AT3-OVA tumors; assay: Immunohistochemistry for p-STAT-1 (Y701) and CD3 in AT3-OVA tumors; assay type: in vivo, mouse; conditions: 10 mg/kg i.v.
Method: (§2) For the immunohistochemistry analysis of mammary tumor samples, samples were dissected and fixed in 10% formalin. After fixation, the tissues were embedded in paraffin and sectioned onto microscopic glass slides at 4 μm thickness per section. After deparaffinization and rehydration, the slides were subjected to antigen retrieval in Tris/EDTA buffer (pH 8.0) at 120 °C for 10 min and then cooled down to room temperature. The slides were blocked with 5% (v/v) normal goat serum (NGS) containing 0.1% (v/v) TritonX-100 in PBS for 1 h at room temperature and then incubated with primary antibody p-STAT-1 (Tyr701) (1:500; Cell Signaling Technology), or CD3ε (1:1000; Dako) at room temperature for 1 h. Slides were then washed with PBS containing 0.05% (w/v) Tween-20 and visualized using a rabbit IgG VECTORSTAIN ABC Elite and DAB (3,3′‐diaminobenzidine) Peroxidase Substrate Kit (Vector Laboratories, UK) and counterstained with haematoxylin. Slides were imaged on an Olympus CX43 microscope (Olympus, Tokyo, Japan).

[5] = test system: p-STAT-1 and CD3 in AT3 tumors; assay: Immunohistochemistry for p-STAT-1 (Y701) and CD3 in AT3 tumors; assay type: in vivo, mouse; conditions: 10 mg/kg i.v.
Method: as §2

[6] = molecular target: T1, PTP1B (Homo sapiens, UniProt P18031); assay: Jump-dilution assay; assay type: biochemical; conditions: 30 min preincubation, 50-fold dilution into 100 µM DiFMUP
T1 construct: PTP1B, residues 1-321; made in house; host or cells: E. coli BL21(DE3)
T1 sequence (P18031 1-321): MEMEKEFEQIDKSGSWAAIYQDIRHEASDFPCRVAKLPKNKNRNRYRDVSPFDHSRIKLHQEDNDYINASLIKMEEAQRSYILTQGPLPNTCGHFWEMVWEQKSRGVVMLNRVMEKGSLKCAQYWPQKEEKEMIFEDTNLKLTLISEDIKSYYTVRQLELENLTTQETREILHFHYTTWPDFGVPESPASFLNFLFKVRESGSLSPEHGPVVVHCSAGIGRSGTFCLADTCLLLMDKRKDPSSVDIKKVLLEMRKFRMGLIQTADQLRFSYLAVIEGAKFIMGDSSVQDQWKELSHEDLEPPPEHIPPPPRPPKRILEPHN
Method: The reaction was allowed to proceed for 10 min under room temperature and was quenched by addition of a 160 µM solution of bpV(Phen). The fluorescence signal was measured using a CLARIOstar Plus Microplate Spectrophotometer (BMG Labtech) using excitation and emission wavelengths of 340 nm and 450 nm, respectively. Data were fitted using Prism GraphPad 9.2.0.

[7] = Morbidity and overt toxicity in treated tumor-bearing mice
Method: Control animals received an injection at the same time of 200 μl of saline. Stock solutions were stored at −80 °C and thawed before each administration.

[8] = Compound 182 10 mg/kg i.v. + α-PD-1 200 μg i.p.
[9] = Figure 9D, tumour-infiltrating cells, AT-3, individual mice, listed as CMP-182
[10] = Figure 9E, AT-3, individual mice, listed as CMP-182
[11] = Figure 9F, tumour-infiltrating cells, AT-3, individual mice, listed as CMP-182
[12] = Figure 10A, serum, individual mice, listed as CMP-182, in pg/mL (unit assumed)

CC(C)(O)CCOc1ccc2cc(O)c(N3CC(=O)NS3(=O)=O)c(F)c2c1 [Compound 182, 5-(1-Fluoro-3-hydroxy-7-(3-hydroxy-3-methylbutoxy)naphthalen-2-yl)−1,2,5-thiadiazolidin-3-one 1,1-dioxide]
recruitment of CD4+ and CD8+ effector/memory T cells, combination therapy [1, 8]: synergistic recruitment | CD4 EM [1, 9]: 43342.4 and 57673.5 and 79430.7 and 97780.3 and 96326.3 and 45818.5 | CD8 EM [1, 9]: 103472 and 141360 and 229947 and 172459 and 191087 and 113353 | GRZMB [1, 10]: 24.8 and 18.9 and 21.2 and 17 and 24 and 19.1 | PD-1 TIM-3 [1, 10]: 32.5 and 47.7 and 47.8 and 31.8 and 39.5 and 41.5 | IFNg+ TNF+ ([1]; Figure 9E, first IFNg+ TNF+ panel, AT-3, individual mice, listed as CMP-182): 7.74 and 4.13 and 7.71 and 10.5 and 16.5 and 3.24 | IFNg+ TNF+ ([1]; Figure 9E, second IFNg+ TNF+ panel, AT-3, individual mice, listed as CMP-182): 19 and 26.4 and 15.4 and 31.9 and 43.5 and 25.3 | MDSCs [1, 11]: 15172.6 and 12646.1 and 18636.2 and 29520.3 and 27688.9 and 13342.8 | NK cells [1, 11]: 41998.7 and 24391.4 and 32687 and 55002.2 and 59698.1 and 23635.5 | Tregs [1, 11]: 32249.8 and 40798.3 and 43823.5 and 55176.6 and 44430.4 and 6773.49 | response of AT3 tumors to PD-1 checkpoint blockade ([2]; 10 mg/kg i.v. every 2 days with α-PD-1 200 μg i.p. twice per week): rendered otherwise largely resistant AT3 tumors sensitive | AT3 tumor growth, combination therapy [2, 8]: marked repression | Tumour weights ([2]; Figure 9C, AT-3, individual mice, listed as CMP-182, in mg (unit assumed)): 195 and 335 and 220 and 301 and 250 and 332 | serum levels of pro-inflammatory cytokines IL-6, IFNγ and TNF ([3]; 10 mg/kg i.v.): not significantly increased | Serum IFNg 2nd cohort, median ([3]; Figure 10A, median, n=8): 10.56, n=8 | Serum IL-6 2nd cohort, median ([3]; Figure 10A, median, n=8): 8.881, n=8 | Serum TNF 2nd cohort, median ([3]; Figure 10A, median, n=8): 15.88, n=8 | IFN g [3, 12]: 8.688 and 8.172 and 5.3329 and 65.9781 and 16.5587 and 24.0426 and 12.4297 and 4.946 | IL-6 [3, 12]: 14.2361 and 23.6555 and 10.1071 and 7.655 and 5.591 and 5.72 and 7.01 and 68.8168 | TNF [3, 12]: 7.107 and 11.4953 and 23.094 and 50.0533 and 23.4075 and 14.0031 and 17.7649 and 12.4357 | p-STAT-1 signaling and T cell infiltrates in AT3-OVA tumors of Lck-Cre;Ptpn2fl/fl mice [4]: did not further increase | p-STAT-1 staining and abundance of CD3ε+ T cells in AT3-OVA tumors ([4]; C57BL/6 mice): increased | tumor p-STAT-1 and CD3+ T cell infiltrates in AT3 tumors of Lck-Cre;Ptpn2fl/fl mice [5]: enhanced promotion | reversibility of inhibition [6]: reversible | morbidity or systemic inflammation ([7]; AT3-OVA tumor-bearing mice, 10 mg/kg i.v.): not accompanied by overt signs of morbidity or systemic inflammation | overt toxicities ([7]; dosing every two days): did not result in any overt toxicities

— publication PMC10374545, “A small molecule inhibitor of PTP1B and PTPN2 enhances T cell anti-tumor immunity” (Nature Communications, 2023)
